Measured values taken from patent US20100330029A1, “Cancer Treatments with Radiation and Immunocytokines” (Merck Patent GmbH, priority 2008, published 2010).

Tested on: Lewis lung carcinoma (LLC)
Assay: tumor growth assay, Lewis lung carcinoma model
Type: in vivo, mice
Settings: LLC-3, single-arm groups: cisplatin plus 3.6 Gy/d without EMD521873, or EMD521873 alone
Method: LL/2 (LLC) cells, a murine Lewis lung carcinoma cell line, were maintained in DMEM, supplemented with 10% heat-inactivated fetal bovine serum, L-glutamine, penicillin/streptomycin (Life Technologies, Inc.) at 37° C. and 7% CO2. LLC cells were implanted in female C57BL/6 mice.
For the tumor growth assay, cells growing exponentially in culture were injected as a single cell suspension in 100 μl of PBS intramuscularly into the upper legs of the mice. In experiments using a dual tumor model, cells were also implanted in the flanks of the mice. […] In Experiment LLC-7, tumors were implanted in the flank until established. Mice were treated on days 0 to 9, then, on day 12, tumors were excised using survival surgery. Thereafter, animal survival was monitored. In Experiment LLC-14, tumors were implanted subcutaneously in the flank until established. Mice were treated on days 0 to 6 and day 17, and tumor size was measured twice weekly for the duration of the study.
Tumors were measured with calipers in three dimensions for the duration of the experiment. Tumor volumes were calculated using the equation:
Volume=4/3π(L/2×W/2×H/2) • where L=length, W=width and H=height of the tumor
For local irradiation, mice were anesthetized by intraperitoneal injection of a solution of 2% tribromoethanol/3% xylazine. The amount injected was 0.02 ml/gram of the recipient's weight. Mice were restrained so that only their tumor-bearing leg was exposed to radiation, while the reminder of the mouse was shielded. Tumors were irradiated with ^137Cs gamma radiation at a dose rate of 1 Gy/min using a Gammacell® 40 Exactor (Nordion, Ottawa, ON).
Data from the subcutaneous tumor growth assay are presented in graphic form depicting average and standard deviations (sd) of tumor volumes or weights during and after dosing. Animal weight changes were determined by subtracting the animal weight at each time point from the initial body weight, on day 0, then dividing by the initial body weight and multiplying by 100. Therefore a value of 0 indicates no weight change.
Student's 2-tailed t test or Mann-Whitney Rank Sum test, as appropriate, was performed on the individual tumor volumes or animal weights, to determine significant differences between treatment groups.

N.N.[Cl][Pt][Cl] [cisplatin, cis-diammineplatinum (II) dichloride, reference compound]
T/C (day 19): 0.32
complete responses: 0/6
